# Source: patent US7309713B2, “Use of the non-opiate analgesic drug flupirtine for the treatment of overactive bladder and associated diseases including urge incontinence, urinary flow problems as a result of prostate hyperplasia and irritable bowel syndrome” (priority 2005, dated 2007)
# Where “and” joins values, the source holds several entries; their conditions need not be identical. Equal entries are not always repeated. Entries after “also recorded” stand apart in the source; their conditions may differ. Structures can show the parent of a compound that is named as a salt.
# Assays:
# [1] = test system: mean arterial blood pressure; test: mean arterial blood pressure recorded in the urethane anaesthetised rats of the bladder model; conditions: for mean BP, change in percent from base value (Δ %) / mean BP Post (30-60 min), mean: group mean; for mean arterial blood pressure decreased by: 10 mg/kg i.d., decrease
# Experimental: The body temperature was maintained at 37° C. by means of an heated small operating table and 2 red light heating lamps. The left carotid artery was prepared and a catheter for continuous blood pressure measurement was inserted and connected to a Statham pressure transducer (Model P23 Db) and connected with a computer-controlled physiological recorder (PMS PR 800, Mumed Systems Ltd London, GB).
# For intraduodenal drug administration a polyethylene catheter was inserted into the upper part of the duodenum, about 5 cm downwards from the pylorus and fixed with a purse-string suture. Bilateral ureters were ligated proximally to the bladder to prevent the bladder filling with urine. Urine of the kidneys was drained onto cotton swabs within the abdomen. The urinary bladder was catheterised via the urethra by use of PE 50 polyethylene tubing filled with physiological saline and secured in place by a ligature at the lower part of the urethra. Using a “T”-connector, the bladder catheter was connected to a Statham pressure transducer (Model P23 Db) connected with the physiological recorder (PMS PR 800) to measure intravesicular pressure and to a Infusion pump (TSE, FRG). Continuous recordings of intravesicular pressure and arterial blood pressure were captured onto a 4 channel Linearcorder WR3310 (Western Graphtec, Inc., USA). The experiment was started infusing (0.05 ml/min) the bladder with warmed saline (37-38° C.) to evoke rhythmic bladder contractions by means an infusion pump up to a maximal volume of 1.0 ml. The infusion is stopped after reaching the final volume or with the start of rhythmic bladder contractions.
# [2] = test system: volume-induced rhythmic urinary bladder contractions; test: volume-induced rhythmic urinary bladder contractions in urethane anaesthetised rats (rat model of overactive bladder); type: in vivo, Sprague Dawley rat; conditions: for amplitude Post (30-60 min), mean / amplitude, change in percent from base value (Δ %) / frequency Post (20-60 min), mean / frequency, change in percent from base value (Δ %): group mean; for presence/absence of bladder contractions (block grade), individual animal: 55 min period, Table 3; for decrease in frequency, individual animal / duration of block, individual animal / increase in frequency, individual animal / number of episodes of block per animal: individual animals; for mean pressure peaks of the amplitude diminished/reduced by: reduction; for mean voiding frequency decreased by: decrease
# Text: In the search for new drugs compounds are of interest which affect the central nervous system circuits involved in micturation as well as the peripheral nerves resulting in a decrease in the frequency of the voiding reflex without any effect on bladder contractility. […] The method utilises spontaneous, volume-induced contractions of the urinary bladder in anaesthetised rats and was developed and first described by Dray (J. Pharmacol. Meth. 13:157-165, 1985) to assess the central activity of substances with opioid properties on bladder function. As this model clearly mimics the interplay between smooth muscle function and neuronal control thereof, this model can be also used to predict drug effects in a different disease, i.e. irritable bowl syndrome (IBS).
# Aim of the study: To characterise the effects of the analgesic flupirtine maleate on the bladder function we used the model volume-induced contractions of urinary bladder in urethane anaesthetised rats. […] The compounds at the dose range 0.1-10 mg/kg were intraduodenally administered to anaesthetised rats. The intraduodenal route was chosen to mimic the oral route and to avoid the use of solvents necessary for intravenous administration.
# • Species: Sprague Dawley rat • Sex: Female • Body weight: 200-270 g • Breeder: Charles River, Sulzfeld • Food/Tap water: pellets, ssniff M/R15, ad libitum, Spezialdiäten GmbH, Soest/Wesffalen, FRG • Conditions in animal housing: Rats were kept conventionally in groups of 6 in macrolon cages No. 4. • Room temperature: 20-24° C. • Relative humidity: 40-70%, deviations from the maximum range caused during cleaning procedure are possible • Light/Dark rhythm: 12/12 h light/dark cycle, light on at 6:00 a.m.
# The food was withdrawn 16 hours before intraduodenal drug administration. Tap water was available ad libitum.
# Flupirtine maleate or oxybutynin hydrochloride were suspended in hydroxyethylcellulose (0.5%) in demineralised water. The substances were ground in a mortar with pistil. The suspensions were placed on a magnetic stirrer before and during dosing procedures. The substances were freshly prepared in the morning and applied intraduodenally in a volume of 0.4 ml/100 g body weight. Control rats received hydroxyethylcellulose (0.5%) i.d.
# The filling material, consisting of small globules, was ground in a mortar with pistil. Thereafter the grounded material was suspended in hydroxyethylcellulose (0.5%) in demineralised water. The suspensions were placed on a magnetic stirrer before and during dosing procedures for 10 minutes. The suspensions were freshly prepared in the morning and applied intraduodenally in a volume of 0.4 ml/100 g body weight to rats. Control rats received the same amount of hydroxyethylcellulose (0.5%) i.d.
# The continuous registration lasted 1 hr. […] The frequency was evaluated for 10 min before (baseline) and within the observation period in intervals of 10 minutes starting 5, 20, 35 and 50 min after drug administration. For intraduodenal dosing, drugs were administered via a duodenal polyethylene tube to animals in aqueous suspension of 0.5% hydroxyethylcellulose.
# Haffner test in mice = conditions: p.o.; cited from earlier work
# [3] = test system: Randall-Selitto test in rats; conditions: p.o.; cited from earlier work
# [4] = test system: analgesic effect in rodents; conditions: p.o.; cited from earlier work
# [5] = 0.1 mg/kg i.d. single dose, listed as Flupirtine maleate
compound,measurement,setting,value
"CCN(CC)CC#CCOC(=O)C(O)(c1ccccc1)C1CCCCC1 (stereo not drawn) [oxybutynin hydrochloride, (α-Phenylcyclohexaneglycolicacid 4-[diethylamino]-2-butynyl ester hydrochloride]","mean BP, change in percent from base value (Δ %)",[1]; 0.1 mg/kg i.d. single dose,−5%
same,"mean BP Post (30-60 min), mean",[1]; 1.0 mg/kg i.d. single dose,80.0-85.0 mm Hg
same,"mean BP, change in percent from base value (Δ %)",[1]; 1.0 mg/kg i.d. single dose,−15%
same,"mean BP, change in percent from base value (Δ %)",[1]; 10 mg/kg i.d. single dose,−24%
same,mean arterial blood pressure decreased by,[1],24%
same,block X/n (animals with blockade of bladder contraction),[2]; 0.1 mg/kg i.d. single dose,3/3
same,"block, blockade duration (group, min-max)",[2]; 0.1 mg/kg i.d. single dose,4 to 6 min
same,"amplitude Post (30-60 min), mean",[2]; 0.1 mg/kg i.d. single dose,32.0-32.0 mm Hg
same,"amplitude, change in percent from base value (Δ %)",[2]; 0.1 mg/kg i.d. single dose,−13%
same,"frequency Post (20-60 min), mean",[2]; 0.1 mg/kg i.d. single dose,6.3-7.3 n/10 min
same,"frequency, change in percent from base value (Δ %)",[2]; 0.1 mg/kg i.d. single dose,−12%
same,"presence/absence of bladder contractions (block grade), individual animal",[2]; 0.1 mg/kg i.d.,(+) (+ or (+) = contractions abolished during 5-10 min time period)
same,"decrease in frequency, individual animal","[2]; 0.1 mg/kg i.d., hydrochloride","decrease in frequency by 25%,; also recorded: frequency by 50%"
same,"duration of block, individual animal","[2]; 0.1 mg/kg i.d., hydrochloride","≤ 6 min and 5 min and max. 4 min, initial increase,"
same,"increase in frequency, individual animal","[2]; 0.1 mg/kg i.d., hydrochloride",frequency by 17%; also recorded: by 9% during 5-15th min
same,number of episodes of block per animal,"[2]; 0.1 mg/kg i.d., hydrochloride",4 (2×) and 1
same,number of episodes of block per animal,"[2]; 0.1 mg/kg i.d., listed as Oxybutynin hydrochloride, hydrochloride",1-4
same,mean pressure peaks of the amplitude diminished/reduced by,[2]; 0.1 mg/kg i.d.,13%
same,block X/n (animals with blockade of bladder contraction),[2]; 1.0 mg/kg i.d. single dose,3/3
same,"amplitude, change in percent from base value (Δ %)",[2]; 1.0 mg/kg i.d. single dose,−20%
same,"frequency, change in percent from base value (Δ %)",[2]; 1.0 mg/kg i.d. single dose,−68%
same,"amplitude Post (30-60 min), mean","[2]; 1.0 mg/kg i.d. single dose, hydrochloride",3/3 bl
same,"presence/absence of bladder contractions (block grade), individual animal","[2]; 1.0 mg/kg i.d., hydrochloride",+++ from 3 to 11th and 30 to (+++ = contractions abolished during 30-60 min time period); also recorded: ++ (++ = contractions abolished during 10-30 min time period)
same,mean voiding frequency decreased by,[2]; 1 mg/kg i.d.,68%
same,"decrease in frequency, individual animal","[2]; 1.0 mg/kg i.d., hydrochloride",contractions by 100%; also recorded: frequency by 62%; also recorded: by 80%
same,"duration of block, individual animal","[2]; 1.0 mg/kg i.d., hydrochloride",9 min and 30 min and 7 to 16 min and 4 to 11 min
same,number of episodes of block per animal,"[2]; 1.0 mg/kg i.d., hydrochloride",3-6 and 3 and 5
same,mean pressure peaks of the amplitude diminished/reduced by,[2]; 1 mg/kg i.d.,20%
same,block X/n (animals with blockade of bladder contraction),[2]; 10 mg/kg i.d. single dose,3/3
same,"amplitude, change in percent from base value (Δ %)",[2]; 10 mg/kg i.d. single dose,−38%
same,"frequency, change in percent from base value (Δ %)",[2]; 10 mg/kg i.d. single dose,+22%
same,"block, blockade duration (group, min-max)","[2]; 10 mg/kg i.d. single dose, hydrochloride",5 to 30 min
same,"block, blockade duration (group, min-max)","[2]; 10 mg/kg i.d. single dose, listed as Oxybutynin hydrochloride, hydrochloride",4 to 30 min
same,"presence/absence of bladder contractions (block grade), individual animal","[2]; 10 mg/kg i.d., hydrochloride",+ (+ or (+) = contractions abolished during 5-10 min time period); also recorded: ++ (++ = contractions abolished during 10-30 min time period)
same,mean frequency averaged over all animals increased by,"[2]; 10 mg/kg i.d., increase",22%
same,"duration of block, individual animal","[2]; 10 mg/kg i.d., hydrochloride",4 min (2×) and 30 min
same,"increase in frequency, individual animal","[2]; 10 mg/kg i.d., hydrochloride",increase in frequency by 14%; also recorded: in frequency by 28%; also recorded: increase in frequency by 22%
same,number of episodes of block per animal,"[2]; 10 mg/kg i.d., hydrochloride",2 and 1 (2×)
same,mean pressure peaks of the amplitude diminished/reduced by,[2]; 10 mg/kg i.d.,38%
same,"reduction in the amplitude, of the basal value","[2]; dose range 0.1-10 mg/kg i.d., generally",no more than 60%
"CCOC(=O)Nc1ccc(NCc2ccc(F)cc2)nc1N [flupirtine maleate, [(2-Amino-6-(4-fluorophenyl)-methyl-amino-3-pyridinyl)-carbamicacid ethylester maleate]]","ED50, analgesic effect in the Haffner test",Haffner test in mice,28 mg/kg p.o.
same,"ED50, Randall-Selitto test",[3],39 mg/kg p.o.
same,"mean BP, change in percent from base value (Δ %)",[1]; 0.1 mg/kg i.d. single dose,−4.7%
same,"mean BP, change in percent from base value (Δ %)",[1]; 1.0 mg/kg i.d. single dose,−6.9%
same,"mean BP, change in percent from base value (Δ %)",[1]; 3.0 mg/kg i.d. single dose,−12%
same,"mean BP Post (30-60 min), mean",[1]; 10 mg/kg i.d. single dose,79.3-83.3 mm Hg
same,mean arterial blood pressure decreased by,[1],11%
same,block X/n (animals with blockade of bladder contraction),[2]; 0.1 mg/kg i.d. single dose,2/3
same,"block, blockade duration (group, min-max)",[2]; 0.1 mg/kg i.d. single dose,4 to 8 min
same,"amplitude, change in percent from base value (Δ %)",[2]; 0.1 mg/kg i.d. single dose,−9.0%
same,"frequency, change in percent from base value (Δ %)",[2]; 0.1 mg/kg i.d. single dose,+3.4%
same,"amplitude, change in percent from base value (Δ %)",[2]; [5],No effect
same,"frequency, change in percent from base value (Δ %)",[2]; [5],No effect
same,block X/n (animals with blockade of bladder contraction),[2]; [5],2 out of 3
same,"presence/absence of bladder contractions (block grade), individual animal",[2]; 0.1 mg/kg i.d.,no block; also recorded: (+) (+ or (+) = contractions abolished during 5-10 min time period)
same,"duration of block, individual animal",[2]; 0.1 mg/kg i.d.,≤ 4 min and ≤ 8 min
same,number of episodes of block per animal,[2]; 0.1 mg/kg i.d.,1
same,"duration of block, individual animal","[2]; 0.1 mg/kg i.d., listed as Flupirtine maleate",4 min and 8 min
same,block X/n (animals with blockade of bladder contraction),[2]; 1.0 mg/kg i.d. single dose,2 out of 3 and 2/3
same,"block, blockade duration (group, min-max)",[2]; 1.0 mg/kg i.d. single dose,4 to 18 min
same,"frequency Post (20-60 min), mean",[2]; 1.0 mg/kg i.d. single dose,7.0-7.0 n/10 min
same,"frequency, change in percent from base value (Δ %)",[2]; 1.0 mg/kg i.d. single dose,−8.7%
same,"presence/absence of bladder contractions (block grade), individual animal",[2]; 1.0 mg/kg i.d.,no block; also recorded: + (+ or (+) = contractions abolished during 5-10 min time period); also recorded: (+) (+ or (+) = contractions abolished during 5-10 min time period)
same,"decrease in frequency, individual animal",[2]; 1.0 mg/kg i.d.,17% and 23% and without influence and frequency by 17% and frequency by 23%
same,"duration of block, individual animal",[2]; 1.0 mg/kg i.d.,4 to 5 min and 16 min
same,number of episodes of block per animal,[2]; 1.0 mg/kg i.d.,1 and 2
same,block X/n (animals with blockade of bladder contraction),[2]; 3.0 mg/kg i.d. single dose,all three and 3/3
same,"block, blockade duration (group, min-max)",[2]; 3.0 mg/kg i.d. single dose,5 to 14 min
same,"amplitude Post (30-60 min), mean",[2]; 3.0 mg/kg i.d. single dose,26.3-26.3 mm Hg
same,"frequency, change in percent from base value (Δ %)",[2]; 3.0 mg/kg i.d. single dose,−40%
same,"presence/absence of bladder contractions (block grade), individual animal",[2]; 3.0 mg/kg i.d.,++ (++ = contractions abolished during 10-30 min time period); also recorded: (+) (+ or (+) = contractions abolished during 5-10 min time period); also recorded: + (+ or (+) = contractions abolished during 5-10 min time period)
same,mean voiding frequency decreased by,[2]; 3 mg/kg i.d.,40%
same,"decrease in frequency, individual animal",[2]; 3.0 mg/kg i.d.,frequency by 29%; also recorded: by 50%; also recorded: frequency by 41%
same,"duration of block, individual animal",[2]; 3.0 mg/kg i.d.,"14 min and block, 6 min block, starting and ≤ 5 min and 8 min"
same,animals with voiding contractions abolished over the whole observation period,[2]; 10 mg/kg i.d.,1/3
same,block X/n (animals with blockade of bladder contraction),[2]; 10 mg/kg i.d. single dose,3/3
same,"block, blockade duration (group, min-max)",[2]; 10 mg/kg i.d. single dose,26 to 56 min
same,"amplitude, change in percent from base value (Δ %)",[2]; 10 mg/kg i.d. single dose,−26%
same,"frequency, change in percent from base value (Δ %)",[2]; 10 mg/kg i.d. single dose,−57%
same,"presence/absence of bladder contractions (block grade), individual animal",[2]; 10 mg/kg i.d.,++ (++ = contractions abolished during 10-30 min time period); also recorded: +++ (+++ = contractions abolished during 30-60 min time period)
same,mean voiding frequency decreased by,[2]; 10 mg/kg i.d.,57%
same,"decrease in frequency, individual animal",[2]; 10 mg/kg i.d.,frequency by 68%; also recorded: in frequency by 87%; also recorded: block decrease in frequency by 57%
same,"duration of block, individual animal",[2]; 10 mg/kg i.d.,26 min and 29 min and 55 min and 39 min
same,mean pressure peaks of the amplitude diminished/reduced by,[2]; 10 mg/kg i.d.,26%
same,doses with therapeutic effect in the model volume-induced contractions in urinary bladder,"[2]; rat, in vivo",1-3 mg/kg p.o.
same,doses of first analgesic efficacy,[4],25-50 mg/kg p.o.
